Reference: patent US8808716B2, “Topical foam composition” (Stiefel Research Australia Pty Ltd, priority 2009, dated 2014)

Test: accelerated stability study (HPLC) of compatibility of tazarotene with surfactants
Format: physicochemical
Details: 50° C.; in hydrophilic ethoxylated fatty alcohol ether surfactant such as Ceteareth-12, in contrast to various lipophilic surfactants
Method: An accelerated stability study (using HPLC) was conducted at 50° C. to measure the compatibility of tazarotene with various surfactants.

tazarotene stability (compatibility with surfactant): most stable
SMILES: CCOC(=O)c1ccc(C#Cc2ccc3c(c2)C(C)(C)CCS3)nc1 [tazarotene]
